Test results published in ChEMBL document CHEMBL1126970, “Development of 1,4-benzodiazepine cholecystokinin type B antagonists” (J Med Chem, 1993).

System: Mus musculus
Assay: Effective dose required to antagonise pentagastrin stimulated acid secretion in mouse when administered iv 5 min prior to pentagastrin
Assay type: functional
Details: not given

Q: With `CCOC(=O)CN1C(=O)C(NC(=O)Nc2ccc(Cl)cc2)N=C(c2ccccc2F)c2ccccc21` (racemic) as the compound, how does the ED50 read?
A: Its ED50 is 0.7 mg/kg.

Biological target: not listed separately
Assay: Inhibition of binding of [125I]-CCK-8 to the cholecystokinin type B receptor
Details: not given

Q: For `CCOC(=O)CN1C(=O)C(NC(=O)c2ccc(Cl)cc2)N=C(c2ccccc2F)c2ccccc21` (racemic), which IC50 is on record?
A: Its IC50 is 1900 nM.

Q: With `CCOC(=O)CN1C(=O)C(NC(=O)Nc2ccc(Cl)cc2)N=C(c2ccccc2F)c2ccccc21` (racemic) as the compound, how does the IC50 read?
A: The IC50 was 1.2 nM.

Biological target: T1, Cholecystokinin receptor type A (Rattus norvegicus) (UniProt P30551)
T1 sequence (whole entry): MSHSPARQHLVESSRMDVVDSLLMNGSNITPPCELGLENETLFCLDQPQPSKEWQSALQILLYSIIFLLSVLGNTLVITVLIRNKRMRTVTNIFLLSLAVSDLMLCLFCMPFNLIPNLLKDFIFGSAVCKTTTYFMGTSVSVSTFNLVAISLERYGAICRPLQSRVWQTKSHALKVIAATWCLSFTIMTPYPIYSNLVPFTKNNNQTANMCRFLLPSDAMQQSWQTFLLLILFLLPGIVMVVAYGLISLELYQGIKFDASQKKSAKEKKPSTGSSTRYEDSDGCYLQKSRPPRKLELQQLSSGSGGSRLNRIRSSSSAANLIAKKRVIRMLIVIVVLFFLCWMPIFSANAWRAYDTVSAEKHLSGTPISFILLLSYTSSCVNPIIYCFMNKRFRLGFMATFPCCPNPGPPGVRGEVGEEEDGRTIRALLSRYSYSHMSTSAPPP
Assay: (§1) Inhibition of binding of [125I]CCK-8 to cholecystokinin type A receptor in rat pancreatic tissue
Set-up: concentration or dose not given beside the values
Details: concentration not given here

Q: For `O=C(Nc1ccc(Cl)cc1)NC1N=C(c2ccccc2)c2ccccc2N(C[C@@H](O)CN2CCCC2)C1=O` (mixture of isomers), which inhibition is on record?
A: The inhibition was > 16%.

Q: For `O=C(Nc1ccc(Cl)cc1)NC1N=C(c2ccccc2)c2ccccc2N(C[C@@H](O)CO)C1=O` (mixture of isomers), which inhibition is on record?
A: Its inhibition is > 9%.

Q: Which inhibition does the source give for `O=C(Nc1ccc(Cl)cc1)NC1N=C(c2ccccc2)c2ccccc2N(C[C@@H](O)CCl)C1=O` (mixture of isomers) here?
A: The inhibition was > 15%.

Q: Which inhibition does the source give for `CCN(CC)C[C@H](O)CN1C(=O)C(NC(=O)Nc2ccc(Cl)cc2)N=C(c2ccccc2)c2ccccc21` (mixture of isomers) here?
A: The inhibition was > 14%.

Q: Which inhibition does the source give for `CN1C(=O)C(NC(=O)Nc2ccc(Cl)nc2)N=C(c2ccccc2)c2ccccc21` (configuration not stated) here?
A: Its inhibition is 23%.

Q: Which inhibition does the source give for `CN1C(=O)C(NC(=O)Nc2ccc3c(c2)OCO3)N=C(c2ccccc2)c2ccccc21` (configuration not stated) here?
A: Its inhibition is > 3%.

System: not listed separately
Assay: Bioavailability in rat after 120 minutes at an oral dose of 2.5 mg/kg
Assay type: ADME, organism-based
Details: plasma

Q: Which concentration at 2 h does the source give for `Cc1cccc(NC(=O)NC2N=C(c3ccccc3)c3ccccc3N(CCO)C2=O)c1` (racemic) here?
A: Its concentration at 2 h is 95 ng/mL.

Q: Which concentration at 2 h does the source give for `Cc1cccc(NC(=O)N[C@@H]2N=C(c3ccccc3)c3ccccc3N(C)C2=O)c1` [L-365260] here?
A: The concentration at 2 h was 194 ng/mL.

Q: For `Cc1cccc(NC(=O)NC2N=C(c3cccnc3)c3ccccc3N(C)C2=O)c1` (racemic), which concentration at 2 h is on record?
A: The concentration at 2 h was 191 ng/mL.

Q: With `CN1C(=O)C(NC(=O)Nc2cccc(C(F)(F)F)c2)N=C(c2ccccc2)c2ccccc21` (configuration not stated) as the compound, how does the concentration at 2 h read?
A: The concentration at 2 h was 102 ng/mL.

Biological target: T2, Cholecystokinin receptor type A (Rattus norvegicus, UniProt P30551)
T2 sequence (P30551 whole entry): T1 sequence (whole entry)
Assay: as §1
Details: not given

Q: With `Cc1cccc(NC(=O)NC2N=C(c3ccccc3)c3ccccc3N(CCO)C2=O)c1` (racemic) as the compound, how does the IC50 read?
A: The IC50 was 270 nM.

Q: Which IC50 does the source give for `Cc1cccc(NC(=O)NC2N=C(c3cccnc3)c3ccccc3N(C)C2=O)c1` (racemic) here?
A: Its IC50 is 2300 nM.

Q: Which IC50 does the source give for `CN1C(=O)C(NC(=O)Nc2cccc(C(=O)O)c2)N=C(c2ccccc2)c2ccccc21` (racemic) here?
A: The IC50 was 14 nM.

Q: With `O=C(Nc1ccc(Cl)cc1)NC1N=C(c2ccccc2)c2ccccc2NC1=O` (racemic) as the compound, how does the IC50 read?
A: Its IC50 is 110 nM.

Q: Which IC50 does the source give for `COc1ccc(NC(=O)NC2N=C(c3ccccc3)c3ccccc3N(C)C2=O)cn1` (configuration not stated) here?
A: Its IC50 is 2900 nM.

Q: Which IC50 does the source give for `COc1cccc(NC(=O)NC2N=C(c3ccccc3)c3ccccc3N(CC[N+](C)(C)C)C2=O)c1` (racemic) here?
A: The IC50 was 17000 nM.

Q: Which IC50 does the source give for `COc1cccc(NC(=O)NC2N=C(c3ccccc3)c3ccccc3N(CCC(=O)O)C2=O)c1` (racemic) here?
A: Its IC50 is 9 nM.

Q: Which IC50 does the source give for `CN1C(=O)C(NC(=O)Nc2cccc(C(F)(F)F)c2)N=C(c2ccccc2)c2ccccc21` (configuration not stated) here?
A: Its IC50 is 740 nM.

Q: Which IC50 does the source give for `CCN(CC)C(=O)CN1C(=O)C(NC(=O)Nc2cccc(C)c2)N=C(c2ccccn2)c2ccccc21` (racemic) here?
A: The IC50 was 435 nM.

Q: With `CN1C(=O)C(NC(=O)Nc2ccc(C(F)(F)F)cc2)N=C(c2ccccc2)c2ccccc21` (configuration not stated) as the compound, how does the IC50 read?
A: Its IC50 is 1300 nM.

Q: For `CN1C(=O)C(NC(=O)Nc2cccnc2)N=C(c2ccccc2)c2ccccc21` (racemic), which IC50 is on record?
A: The IC50 was 120 nM.

Q: Which IC50 does the source give for `COC(=O)[C@H]1CCCN1OC(=O)CN1C(=O)C(NC(=O)Nc2cccc(OC)c2)N=C(c2ccccc2)c2ccccc21` (mixture of isomers) here?
A: The IC50 was 1400 nM.

Q: Which IC50 does the source give for `CN1C(=O)C(NC(=O)Nc2cccc(-c3ccccc3)c2)N=C(c2ccccc2)c2ccccc21` (racemic) here?
A: Its IC50 is 123 nM.

Q: Which IC50 does the source give for `CN1C(=O)[C@H](NC(=O)Nc2cccc(I)c2)N=C(c2ccccc2)c2ccccc21` here?
A: The IC50 was 800 nM.

Q: Which IC50 does the source give for `O=C(Nc1ccc(Cl)cc1)N[C@@H]1N=C(c2ccccc2)c2ccccc2N(CC(=O)N2CCCC2)C1=O` here?
A: Its IC50 is 900 nM.

System: Mus musculus
Assay: Effective dose required to antagonise pentagastrin stimulated acid secretion in mouse when administered orally 85-100 min prior to pentagastrin
Assay type: functional
Details: po

Q: With `CCOC(=O)CN1C(=O)C(NC(=O)Nc2ccc(Cl)cc2)N=C(c2ccccc2F)c2ccccc21` (racemic) as the compound, how does the ED50 read?
A: The ED50 was 6 mg/kg.

Species on record: Cavia porcellus
Assay: Selectivity ratio between CCK-B and CCK-A receptor
Set-up: reference not given here
Details: not given

Q: With `Cc1cccc(NC(=O)NC2N=C(c3ccccc3)c3ccccc3N(CCO)C2=O)c1` (racemic) as the compound, how does the Selectivity ratio read?
A: Its Selectivity ratio is 6.

Q: Which Selectivity ratio does the source give for `O=C(Nc1ccc(Cl)cc1)NC1N=C(c2ccccc2)c2ccccc2N(C[C@@H](O)CN2CCCC2)C1=O` (mixture of isomers) here?
A: The Selectivity ratio was > 10.

Q: With `O=C(Nc1ccc(Cl)cc1)NC1N=C(c2ccccc2)c2ccccc2N(C[C@@H](O)CO)C1=O` (mixture of isomers) as the compound, how does the Selectivity ratio read?
A: The Selectivity ratio was > 30.

Q: For `CCOC(=O)CN1C(=O)C(NC(=O)c2ccc(Cl)cc2)N=C(c2ccccc2F)c2ccccc21` (racemic), which Selectivity ratio is on record?
A: Its Selectivity ratio is 0.06.

Q: Which Selectivity ratio does the source give for `Cc1cccc(NC(=O)NC2N=C(c3cccnc3)c3ccccc3N(C)C2=O)c1` (racemic) here?
A: The Selectivity ratio was 25.

Q: Which Selectivity ratio does the source give for `O=C(Nc1ccc(Cl)cc1)NC1N=C(c2ccccc2)c2ccccc2N(C[C@@H](O)CCl)C1=O` (mixture of isomers) here?
A: Its Selectivity ratio is > 500.

Q: With `CCN(CC)C[C@H](O)CN1C(=O)C(NC(=O)Nc2ccc(Cl)cc2)N=C(c2ccccc2)c2ccccc21` (mixture of isomers) as the compound, how does the Selectivity ratio read?
A: Its Selectivity ratio is > 7.

Q: For `CN1C(=O)C(NC(=O)Nc2cccc(C(=O)O)c2)N=C(c2ccccc2)c2ccccc21` (racemic), which Selectivity ratio is on record?
A: Its Selectivity ratio is 1.4.

Q: For `O=C(Nc1ccc(Cl)cc1)NC1N=C(c2ccccc2)c2ccccc2NC1=O` (racemic), which Selectivity ratio is on record?
A: Its Selectivity ratio is 0.4.

Q: With `COc1ccc(NC(=O)NC2N=C(c3ccccc3)c3ccccc3N(C)C2=O)cn1` (configuration not stated) as the compound, how does the Selectivity ratio read?
A: The Selectivity ratio was 6.3.

Q: Which Selectivity ratio does the source give for `COc1cccc(NC(=O)NC2N=C(c3ccccc3)c3ccccc3N(CC[N+](C)(C)C)C2=O)c1` (racemic) here?
A: The Selectivity ratio was 15.

Q: Which Selectivity ratio does the source give for `COc1cccc(NC(=O)NC2N=C(c3ccccc3)c3ccccc3N(CCC(=O)O)C2=O)c1` (racemic) here?
A: The Selectivity ratio was 0.036.

Q: Which Selectivity ratio does the source give for `CN1C(=O)C(NC(=O)Nc2cccc(C(F)(F)F)c2)N=C(c2ccccc2)c2ccccc21` (configuration not stated) here?
A: The Selectivity ratio was 195.

Q: With `CCN(CC)C(=O)CN1C(=O)C(NC(=O)Nc2cccc(C)c2)N=C(c2ccccn2)c2ccccc21` (racemic) as the compound, how does the Selectivity ratio read?
A: Its Selectivity ratio is 776.

Q: Which Selectivity ratio does the source give for `CN1C(=O)C(NC(=O)Nc2ccc(C(F)(F)F)cc2)N=C(c2ccccc2)c2ccccc21` (configuration not stated) here?
A: Its Selectivity ratio is 228.

Q: With `CN1C(=O)C(NC(=O)Nc2cccnc2)N=C(c2ccccc2)c2ccccc21` (racemic) as the compound, how does the Selectivity ratio read?
A: Its Selectivity ratio is 0.4.

Q: With `COC(=O)[C@H]1CCCN1OC(=O)CN1C(=O)C(NC(=O)Nc2cccc(OC)c2)N=C(c2ccccc2)c2ccccc21` (mixture of isomers) as the compound, how does the Selectivity ratio read?
A: Its Selectivity ratio is 144.

Q: For `CN1C(=O)C(NC(=O)Nc2cccc(-c3ccccc3)c2)N=C(c2ccccc2)c2ccccc21` (racemic), which Selectivity ratio is on record?
A: Its Selectivity ratio is 1.

Q: Which Selectivity ratio does the source give for `CCOC(=O)CN1C(=O)C(NC(=O)Nc2ccc(Cl)cc2)N=C(c2ccccc2F)c2ccccc21` (racemic) here?
A: Its Selectivity ratio is 183.

Q: Which Selectivity ratio does the source give for `CN1C(=O)[C@H](NC(=O)Nc2cccc(I)c2)N=C(c2ccccc2)c2ccccc21` here?
A: Its Selectivity ratio is 116.

Q: Which Selectivity ratio does the source give for `O=C(Nc1ccc(Cl)cc1)N[C@@H]1N=C(c2ccccc2)c2ccccc2N(CC(=O)N2CCCC2)C1=O` here?
A: The Selectivity ratio was 643.

Q: With `CN1C(=O)C(NC(=O)Nc2ccc(Cl)nc2)N=C(c2ccccc2)c2ccccc21` (configuration not stated) as the compound, how does the Selectivity ratio read?
A: The Selectivity ratio was > 65.

Q: Which Selectivity ratio does the source give for `CN1C(=O)C(NC(=O)Nc2ccc3c(c2)OCO3)N=C(c2ccccc2)c2ccccc21` (configuration not stated) here?
A: The Selectivity ratio was > 100.

System: not listed separately
Assay: Bioavailability in rat after 30 minutes at an oral dose of 2.5 mg/kg
Assay type: ADME, organism-based
Details: plasma

Q: For `Cc1cccc(NC(=O)NC2N=C(c3ccccc3)c3ccccc3N(CCO)C2=O)c1` (racemic), which concentration at 0.5 h is on record?
A: The concentration at 0.5 h was 156 ng/mL.

Q: Which concentration at 0.5 h does the source give for `Cc1cccc(NC(=O)N[C@@H]2N=C(c3ccccc3)c3ccccc3N(C)C2=O)c1` [L-365260] here?
A: The concentration at 0.5 h was 172 ng/mL.

Q: For `Cc1cccc(NC(=O)NC2N=C(c3cccnc3)c3ccccc3N(C)C2=O)c1` (racemic), which concentration at 0.5 h is on record?
A: Its concentration at 0.5 h is 219 ng/mL.

Q: With `CN1C(=O)C(NC(=O)Nc2cccc(C(F)(F)F)c2)N=C(c2ccccc2)c2ccccc21` (configuration not stated) as the compound, how does the concentration at 0.5 h read?
A: The concentration at 0.5 h was 120 ng/mL.

System: Mus musculus
Assay: Effective dose required to antagonise pentagastrin stimulated acid secretion in mouse when administered iv 60-80 min prior to pentagastrin
Assay type: functional
Details: not given

Q: Which ED50 does the source give for `CCOC(=O)CN1C(=O)C(NC(=O)Nc2ccc(Cl)cc2)N=C(c2ccccc2F)c2ccccc21` (racemic) here?
A: The ED50 was > 2 mg/kg.
